Experimental data published in patent publication US20250129044A1 (priority 2021, published 2025).
Counter-ions that a name gives are not always drawn.

Molecular target: sodium channel isoforms (Homo sapiens, UniProt P35498)
Assay type: cell-based
Settings: area under the sodium current trace, step from −120 mV to 0 mV, HEK cells
Experimental: The sodium channel isoforms of interest are stably expressed in Human Embryonic Kidney Cells and the currents that flow through those channels in response to a depolarizing voltage clamp step from −120 mV to 0 mV are measured in the presence of increasing concentrations of the chemical agents. The area under the sodium current trace which correlates to the magnitude of sodium flux through the cell membrane is used to quantify the effects on gating of the channels. Other parameters that are measured in the assay include the peak current, time constant of open state inactivation and the voltage dependence of steady state inactivation properties. The concentration responses are used to determine potency of each chemical agents effects on modulating the sodium channel isoform gating. Such techniques are known to those skilled in the art, and may be developed, using current technologies, into low or medium throughput assays for evaluating compounds for their ability to modulate sodium channel behaviour.

Row | SMILES | Empirical Emax | EC50 [nM]
1 | CC(C)c1ncc(C(=O)Nc2c(-c3ccccc3F)ccnc2[C@H]2CC[C@H](F)CC2)cn1 [Example 34] | +++ (+++ indicates a value from 5.0 up to 7.5 μM) | 
2 | O=C(Nc1ccc(Cl)nc1)c1c(-c2ccccc2F)ccnc1C1CCCC1 [Example 49, N-(6-chloropyridin-3-yl)-2-cyclopentyl-4-(2-fluorophenyl)nicotinamide] | + (+ indicates a value less than 2.0 μM) | 
3 | CC(C)c1ncc(C(=O)Nc2c(-c3ccccc3F)ccnc2C2CC(F)(F)CCN2C)cn1 (racemic) [Example 43] | ++ (++ indicates a value from 2.0 up to 5.0 μM) | 
4 | CC(C)c1ncc(C(=O)Nc2c(-c3ccccc3F)ccnc2C2CCC3(CC2)CC3)cn1 [Example 28, N-[4-(2-fluorophenyl)-2-spiro[2.5]octan-6-yl-3-pyridyl]-2-isopropyl-pyrimidine-5-carboxamide] | ++ (++ indicates a value from 2.0 up to 5.0 μM) | 
5 | CC(C)c1ncc(C(=O)Nc2c(-c3ccccc3F)ccnc2[C@H]2CC[C@@H](F)CC2)cn1 [Example 33] | +++ (+++ indicates a value from 5.0 up to 7.5 μM) | 
6 | CC(C)c1ncc(C(=O)Nc2c(-c3ccccc3F)ccnc2[C@H]2CC[C@H](C(F)(F)F)CC2)cn1 [Example 30, N-[4-(2-fluorophenyl)-2-[4-(trifluoromethyl)cyclohexyl]-3-pyridyl]-2-isopropyl-pyrimidine-5-carboxamide] | ++ (++ indicates a value from 2.0 up to 5.0 μM) | 
7 | CC(C)c1ncc(C(=O)Nc2c(-c3ccccc3F)ccnc2C2CC(F)(F)CCN2)cn1 (racemic) [Example 41, (±)—N-[2-(4,4-difluoro-2-piperidyl)-4-(2-fluorophenyl)-3-pyridyl]-2-isopropyl-pyrimidine-5-carboxamide hydrochloric acid salt] | ++ (++ indicates a value from 2.0 up to 5.0 μM) | 
8 | CC(C)c1ncc(C(=O)Nc2c(-c3ccccc3F)ccnc2C2CCC(F)(F)C2)cn1 (stereo not drawn) [Example 24, N-[2-(3,3-difluorocyclopentyl)-4-(2-fluorophenyl)-3-pyridyl]-2-isopropyl-pyrimidine-5-carboxamide] | ++++ (++++ indicates a value greater than 7.5) | 
9 | O=C(Nc1ccc(Cl)nc1)c1c(-c2ccccc2F)ccnc1C1=CCCC1 [Example 50, N-(6-chloropyridin-3-yl)-2-(cyclopent-1-en-1-yl)-4-(2-fluorophenyl)nicotinamide] | + (+ indicates a value less than 2.0 μM) | 
10 | Fc1ccc(F)c(-c2ccnc(C3CCC(F)(F)CC3)c2-c2nc3c([nH]2)COCC3)c1 [Example 47, 2-(2-(4,4-difluorocyclohexyl)-4-(2,5-difluorophenyl)pyridin-3-yl)-3,4,6,7-tetrahydropyrano[3,4-d]imidazole] | +++ (+++ indicates a value from 5.0 up to 7.5 μM) | 
11 | Fc1ccc(F)c(-c2ccnc(C3CCC(F)(F)C3)c2-c2nc3c([nH]2)COCC3)c1 (stereo not drawn) [Example 48, 2-(2-(3,3-difluorocyclopentyl)-4-(2,5-difluorophenyl)pyridin-3-yl)-3,4,6,7-tetrahydropyrano[3,4-d]imidazole] | +++ (+++ indicates a value from 5.0 up to 7.5 μM) | 
12 | CC(C)c1ncc(C(=O)Nc2c(-c3ccccc3F)ccnc2C2CC(F)(F)C2)cn1 [Example 32, N-(2-(3,3-difluorocyclobutyl)-4-(2-fluorophenyl)pyridin-3-yl)-2-isopropylpyrimidine-5-carboxamide] | +++ (+++ indicates a value from 5.0 up to 7.5 μM) | 
13 | CC(C)c1ncc(C(=O)Nc2c(-c3ccccc3F)ccnc2C2CC3(C2)CC3(F)F)cn1 (stereo not drawn) [Example 22, N-[2-(2,2-difluorospiro[2.3]hexan-5-yl)-4-(2-fluorophenyl)-3-pyridyl]-2-isopropyl-pyrimidine-5-carboxamide] | +++ (+++ indicates a value from 5.0 up to 7.5 μM) | 
14 | CCOc1ncc(C(=O)Nc2c(-c3ccccc3F)ccnc2C2CCC(F)(F)CC2)cn1 [Example 3, N-[2-(4,4-difluorocyclohexyl)-4-(2-fluorophenyl)-3-pyridyl]-2-ethoxy-pyrimidine-5-carboxamide] | ++++ (++++ indicates a value greater than 7.5) | 
15 | CO[C@H]1CC[C@@H](c2nccc(-c3ccccc3F)c2NC(=O)c2cnc(C(C)C)nc2)CC1 [Example 38] | + (+ indicates a value less than 2.0 μM) | 
16 | FC1(F)CCC(c2nccc(-c3ccccc3)c2-c2nc3c([nH]2)COCC3)CC1 [Example 46, 2-(2-(4,4-difluorocyclohexyl)-4-phenylpyridin-3-yl)-3,4,6,7-tetrahydropyrano[3,4-d]imidazole] | +++ (+++ indicates a value from 5.0 up to 7.5 μM) | 
17 | CC(C)c1ncc(C(=O)Nc2c(C3=CCCCO3)ccnc2C2CCC(F)(F)CC2)cn1 [Example 54, N-(2-(4,4-difluorocyclohexyl)-4-(3,4-dihydro-2H-pyran-6-yl)pyridin-3-yl)-2-isopropylpyrimidine-5-carboxamide] | ++++ (++++ indicates a value greater than 7.5) | 
18 | C1=C(c2nccc(-c3ccccc3)c2-c2nc3c([nH]2)COCC3)CCOC1 [Example 44, 2-(2-(3,6-dihydro-2H-pyran-4-yl)-4-phenylpyridin-3-yl)-3,4,6,7-tetrahydropyrano[3,4-d]imidazole] | + (+ indicates a value less than 2.0 μM) | 
19 | CC(C)c1ncc(C(=O)Nc2c(-c3ccccc3F)ccnc2C2CCCOC2)cn1 (stereo not drawn) [Example 16, N-[4-(2-fluorophenyl)-2-tetrahydropyran-3-yl-3-pyridyl]-2-isopropyl-pyrimidine-5-carboxamide] | ++ (++ indicates a value from 2.0 up to 5.0 μM) | 
20 | CC(C)c1ncc(C(=O)Nc2c(-c3ccccc3F)ccnc2C2CCCN2C)cn1 (racemic) [Example 42, (±)—N-(4-(2-fluorophenyl)-2-(1-methylpyrrolidin-2-yl)pyridin-3-yl)-2-isopropylpyrimidine-5-carboxamide] | + (+ indicates a value less than 2.0 μM) | 
21 | CC(C)c1ccc(NC(=O)c2c(-c3ccccc3F)ccnc2C2CCOCC2)cn1 [Example 53, 4-(2-fluorophenyl)-N-(6-isopropylpyridin-3-yl)-2-(tetrahydro-2H-pyran-4-yl)nicotinamide] | ++ (++ indicates a value from 2.0 up to 5.0 μM) | 
22 | CN1C[C@H]2CC[C@@H](C1)N2c1ncc(C(=O)Nc2c(-c3cc(F)ccc3F)ccnc2C2CCC(F)(F)CC2)cn1 [Example 160, N-(2-(4,4-difluorocyclohexyl)-4-(2,5-difluorophenyl)pyridin-3-yl)-2-((1R,5S)-3-methyl-3,8-diazabicyclo[3.2.1]octan-8-yl)pyrimidine-5-carboxamide] |  | < 1000
23 | CC(C)c1ncc(C(=O)Nc2c(-c3ccccc3F)ccnc2C2CC(C(F)(F)F)C2)cn1 (stereo not drawn) [Example 35, N-(4-(2-fluorophenyl)-2-(3-(trifluoromethyl)cyclobutyl)pyridin-3-yl)-2-isopropylpyrimidine-5-carboxamide] | +++ (+++ indicates a value from 5.0 up to 7.5 μM) | 
24 | CC(C)c1ncc(C(=O)Nc2c(-c3ccccc3F)ccnc2C2CCC3(C2)CC3(F)F)cn1 (stereo not drawn) [Example 27, N-[2-(2,2-difluorospiro[2.4]heptan-6-yl)-4-(2-fluorophenyl)-3-pyridyl]-2-isopropyl-pyrimidine-5-carboxamide] | +++ (+++ indicates a value from 5.0 up to 7.5 μM) | 
